Experimental data published in paper PMC10763615, “Identification and engineering of potent cyclic peptides with selective or promiscuous binding through biochemical profiling and bioinformatic data analysis” (RSC Chemical Biology, 2023).
Read-outs that look alike come from different tables or passages of the source. Positions of bridges follow the written chain, without caps; N, C: chain ends. Residues, ends and D or L forms follow the SMILES beside them.

How the values were obtained:
Type in all cases: binding
FGF-R4 ECD = target: T1, FGF-R4 ECD (Homo sapiens, UniProt P22455); experiment: single concentration BLI of crude peptides; conditions: read-out: KD (4)
T1 construct: DNA constructs for the extracellular domain (ECD) of human FGF-; HPC4 (C); made in house; host or cells: HEK 293-6E
T1 sequence (P22455 22-369 limits assumed): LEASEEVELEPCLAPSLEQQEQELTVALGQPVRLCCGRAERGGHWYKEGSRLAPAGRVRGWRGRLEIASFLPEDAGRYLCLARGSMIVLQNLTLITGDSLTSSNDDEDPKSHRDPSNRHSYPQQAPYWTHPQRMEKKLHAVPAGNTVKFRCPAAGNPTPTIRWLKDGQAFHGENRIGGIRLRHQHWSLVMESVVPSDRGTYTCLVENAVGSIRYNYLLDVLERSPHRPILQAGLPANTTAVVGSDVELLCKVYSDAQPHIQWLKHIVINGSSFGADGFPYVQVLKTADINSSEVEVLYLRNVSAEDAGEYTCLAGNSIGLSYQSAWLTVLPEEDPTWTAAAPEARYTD
How it was run: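 Streptavidin biosensors carrying biotinylated FGF receptor ECD were immersed in peptide (~1 μM for crude single-point runs, a concentration series for purified peptides) and then in peptide-free buffer. KD was obtained by fitting the BLI association and dissociation curves.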

FGF-R1C ECD = target: T2, FGF-R1C ECD (Homo sapiens, UniProt P11362); experiment: biochemical; parameters: DNA constructs for the extracellular domain (ECD) of human FGF-; HPC4 (C); made in house; host or cells: HEK 293-6E
T2 sequence (P11362 22-376 limits assumed): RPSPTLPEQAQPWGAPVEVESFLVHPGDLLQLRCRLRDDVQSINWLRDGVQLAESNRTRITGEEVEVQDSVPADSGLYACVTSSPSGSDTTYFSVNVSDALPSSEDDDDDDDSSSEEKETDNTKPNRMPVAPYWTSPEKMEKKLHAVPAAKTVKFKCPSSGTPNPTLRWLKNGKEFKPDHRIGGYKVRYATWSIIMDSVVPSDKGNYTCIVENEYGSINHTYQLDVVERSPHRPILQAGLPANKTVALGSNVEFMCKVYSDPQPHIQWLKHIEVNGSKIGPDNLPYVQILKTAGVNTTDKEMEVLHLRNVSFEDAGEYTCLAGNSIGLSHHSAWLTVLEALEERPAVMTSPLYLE
How it was run: (§1)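 Biolayer interferometry with biotinylated FGF-R ECD on streptavidin biosensors in PBS pH 7.4, 0.05% Tween-20, 0.01% BSA. Multi-concentration: purified peptide dilution series fitted to a multi-point KD model.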

FGF-R3C ECD = target: T3, FGF-R3C ECD (Homo sapiens, UniProt P22607); experiment: biochemical; parameters: DNA constructs for the extracellular domain (ECD) of human FGF-; HPC4 (C); made in house; host or cells: HEK 293-6E
T3 sequence (P22607 23-375 limits assumed): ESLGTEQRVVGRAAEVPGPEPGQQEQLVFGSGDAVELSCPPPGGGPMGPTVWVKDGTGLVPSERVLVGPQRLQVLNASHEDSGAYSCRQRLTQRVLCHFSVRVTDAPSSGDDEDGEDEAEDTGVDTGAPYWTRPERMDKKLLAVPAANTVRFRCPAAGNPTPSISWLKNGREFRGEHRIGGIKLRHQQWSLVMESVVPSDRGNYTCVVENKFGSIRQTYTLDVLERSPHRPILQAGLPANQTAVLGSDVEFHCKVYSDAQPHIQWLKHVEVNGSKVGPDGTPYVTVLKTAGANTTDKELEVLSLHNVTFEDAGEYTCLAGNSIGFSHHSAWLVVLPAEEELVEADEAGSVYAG
How it was run: as §1

[1] = crude T18 selection 1 (1:1:1) peptides, single concentration BLI (Table S4)

Compound | Kd (FGF-R4 ECD; [1]) | Kd (FGF-R1C ECD) | Kd (FGF-R3C ECD) | Kd (FGF-R4 ECD; crude NNK peptides, single concentration BLI (Table S3))
CC[C@H](C)[C@@H]1NC(=O)[C@@H](NC(=O)[C@H](CCSC)NC(C)=O)CSSC[C@@H](C(=O)NCC(=O)N[C@@H](CO)C(=O)NCC(=O)N[C@@H](CO)C(=O)N[C@@H](CC(=O)O)C(=O)N[C@@H](Cc2ccc(O)cc2)C(=O)N[C@@H](CCCCN)C(=O)N[C@@H](CC(=O)O)C(=O)N[C@@H](CC(=O)O)C(=O)N[C@@H](CC(=O)O)C(=O)N[C@@H](CC(=O)O)C(=O)N[C@@H](CCCCN)C(N)=O)NC(=O)[C@H](Cc2c[nH]cn2)NC(=O)[C@H](CO)NC(=O)[C@H]([C@@H](C)CC)NC(=O)[C@H](CC(C)C)NC(=O)[C@H](Cc2ccc(O)cc2)NC(=O)[C@H](Cc2ccc(O)cc2)NC(=O)[C@H](Cc2ccccc2)NC(=O)[C@H](CC(C)C)NC(=O)[C@H](Cc2ccc(O)cc2)NC(=O)[C@H](CCCNC(=N)N)NC1=O (Ac-MCIRYLFYYLISHCGSGSDYKDDDDK-NH2; disulfide 2-14) | 0.002 µM | > 10 µM | > 10 µM | –
CSCC[C@H](NC(C)=O)C(=O)N[C@H]1CSSC[C@@H](C(=O)NCC(=O)N[C@@H](CO)C(=O)NCC(=O)N[C@@H](CO)C(=O)N[C@@H](CCC(=O)O)C(=O)N[C@@H](CCC(=O)O)C(=O)NCC(=O)N[C@@H](CO)C(=O)NCC(=O)N[C@@H](CO)C(=O)N[C@@H](CC(=O)O)C(=O)N[C@@H](Cc2ccc(O)cc2)C(=O)N[C@@H](CCCCN)C(=O)N[C@@H](CC(=O)O)C(=O)N[C@@H](CC(=O)O)C(=O)N[C@@H](CC(=O)O)C(=O)N[C@@H](CC(=O)O)C(=O)N[C@@H](CCCCN)C(N)=O)NC(=O)[C@H](Cc2ccccc2)NC(=O)[C@H](CCCCN)NC(=O)CNC(=O)[C@H](CCCCN)NC(=O)[C@H](Cc2c[nH]c3ccccc23)NC(=O)[C@H](CC(C)C)NC(=O)[C@H](CC(C)C)NC(=O)[C@H](Cc2ccccc2)NC(=O)[C@H](C)NC(=O)[C@H](CCCCN)NC(=O)[C@H](C)NC1=O (Ac-MCAKAFLLWKGKFCGSGSEEGSGSDYKDDDDK-NH2; disulfide 2-14) | > 10 µM | > 10 µM | > 10 µM | –
CSCC[C@H](NC(C)=O)C(=O)N[C@H]1CSSC[C@@H](C(=O)NCC(=O)N[C@@H](CO)C(=O)NCC(=O)N[C@@H](CO)C(=O)N[C@@H](CCC(=O)O)C(=O)N[C@@H](CCC(=O)O)C(=O)NCC(=O)N[C@@H](CO)C(=O)NCC(=O)N[C@@H](CO)C(=O)N[C@@H](CC(=O)O)C(=O)N[C@@H](Cc2ccc(O)cc2)C(=O)N[C@@H](CCCCN)C(=O)N[C@@H](CC(=O)O)C(=O)N[C@@H](CC(=O)O)C(=O)N[C@@H](CC(=O)O)C(=O)N[C@@H](CC(=O)O)C(=O)N[C@@H](CCCCN)C(N)=O)NC(=O)[C@H](Cc2c[nH]cn2)NC(=O)[C@H](Cc2ccccc2)NC(=O)[C@H](CC(C)C)NC(=O)[C@H](CCCCN)NC(=O)[C@H](Cc2c[nH]c3ccccc23)NC(=O)[C@H](Cc2ccc(O)cc2)NC(=O)[C@H](Cc2ccc(O)cc2)NC(=O)[C@H](CC(C)C)NC(=O)[C@H](Cc2c[nH]cn2)NC(=O)[C@H](CCCNC(=N)N)NC(=O)CNC(=O)[C@H]([C@@H](C)O)NC1=O (Ac-MCTGRHLYYWKLFHCGSGSEEGSGSDYKDDDDK-NH2; disulfide 2-15) | 0.01 µM | > 10 µM | > 10 µM | –
CSCC[C@H](NC(C)=O)C(=O)N[C@H]1CSSC[C@@H](C(=O)NCC(=O)N[C@@H](CO)C(=O)NCC(=O)N[C@@H](CO)C(=O)N[C@@H](CCC(=O)O)C(=O)N[C@@H](CCC(=O)O)C(=O)NCC(=O)N[C@@H](CO)C(=O)NCC(=O)N[C@@H](CO)C(=O)N[C@@H](CC(=O)O)C(=O)N[C@@H](Cc2ccc(O)cc2)C(=O)N[C@@H](CCCCN)C(=O)N[C@@H](CC(=O)O)C(=O)N[C@@H](CC(=O)O)C(=O)N[C@@H](CC(=O)O)C(=O)N[C@@H](CC(=O)O)C(=O)N[C@@H](CCCCN)C(N)=O)NC(=O)[C@H](CCCNC(=N)N)NC(=O)[C@H](CCC(N)=O)NC(=O)[C@H](Cc2c[nH]cn2)NC(=O)[C@H](Cc2c[nH]c3ccccc23)NC(=O)[C@H](CC(C)C)NC(=O)[C@H](CCCCN)NC(=O)[C@H](Cc2c[nH]c3ccccc23)NC(=O)[C@H](Cc2ccc(O)cc2)NC(=O)[C@H](Cc2ccccc2)NC(=O)[C@H](CC(C)C)NC(=O)[C@H](Cc2c[nH]cn2)NC(=O)[C@H](CCCNC(=N)N)NC1=O (Ac-MCRHLFYWKLWHQRCGSGSEEGSGSDYKDDDDK-NH2; disulfide 2-15) | 0.002 µM | > 10 µM | > 10 µM | –
CSCC[C@H](N)C(=O)N[C@H]1CSSC[C@@H](C(=O)NCC(=O)N[C@@H](CO)C(=O)NCC(=O)N[C@@H](CO)C(=O)N[C@@H](CC(=O)O)C(=O)N[C@@H](Cc2ccc(O)cc2)C(=O)N[C@@H](CCCCN)C(=O)N[C@@H](CC(=O)O)C(=O)N[C@@H](CC(=O)O)C(=O)N[C@@H](CC(=O)O)C(=O)N[C@@H](CC(=O)O)C(=O)N[C@@H](CCCCN)C(N)=O)NC(=O)[C@H](Cc2ccccc2)NC(=O)[C@H](C(C)C)NC(=O)[C@H](Cc2ccccc2)NC(=O)[C@@H]2CCCN2C(=O)[C@H](CC(C)C)NC(=O)[C@H](Cc2c[nH]c3ccccc23)NC(=O)[C@H](CO)NC(=O)[C@H](CC(=O)O)NC(=O)[C@H](Cc2ccccc2)NC(=O)[C@H](C(C)C)NC1=O (H-MCVFDSWLPFVFCGSGSDYKDDDDK-NH2; disulfide 2-13) | – | > 10 µM | 1.06 µM | > 10 µM
CC[C@H](C)[C@@H]1NC(=O)[C@@H](NC(=O)[C@H](CCSC)NC(C)=O)CSSC[C@@H](C(=O)NCC(=O)N[C@@H](CO)C(=O)NCC(=O)N[C@@H](CO)C(=O)N[C@@H](CC(=O)O)C(=O)N[C@@H](Cc2ccc(O)cc2)C(=O)N[C@@H](CCCCN)C(=O)N[C@@H](CC(=O)O)C(=O)N[C@@H](CC(=O)O)C(=O)N[C@@H](CC(=O)O)C(=O)N[C@@H](CC(=O)O)C(=O)N[C@@H](CCCCN)C(N)=O)NC(=O)[C@H](CC(C)C)NC(=O)[C@H](CC(C)C)NC(=O)[C@H](Cc2ccc(O)cc2)NC(=O)[C@H](Cc2ccc(O)cc2)NC(=O)[C@H](Cc2ccccc2)NC(=O)[C@H](CC(C)C)NC(=O)[C@H](Cc2c[nH]cn2)NC(=O)[C@H](CC(C)C)NC(=O)[C@H](CC(=O)O)NC(=O)[C@H](CCCCN)NC1=O (Ac-MCIKDLHLFYYLLCGSGSDYKDDDDK-NH2; disulfide 2-14) | 0.014 µM | 0.03 µM | > 10 µM | –
CSCC[C@H](NC(C)=O)C(=O)N[C@H]1CSSC[C@@H](C(=O)NCC(=O)N[C@@H](CO)C(=O)NCC(=O)N[C@@H](CO)C(=O)N[C@@H](CC(=O)O)C(=O)N[C@@H](Cc2ccc(O)cc2)C(=O)N[C@@H](CCCCN)C(=O)N[C@@H](CC(=O)O)C(=O)N[C@@H](CC(=O)O)C(=O)N[C@@H](CC(=O)O)C(=O)N[C@@H](CC(=O)O)C(=O)N[C@@H](CCCCN)C(N)=O)NC(=O)[C@H](Cc2c[nH]c3ccccc23)NC(=O)[C@H](CC(C)C)NC(=O)[C@H](CC(C)C)NC(=O)[C@H](Cc2ccc(O)cc2)NC(=O)[C@H](Cc2ccc(O)cc2)NC(=O)[C@H](Cc2ccccc2)NC(=O)[C@H](CC(C)C)NC(=O)[C@H](Cc2c[nH]cn2)NC(=O)[C@H](CCC(=O)O)NC(=O)[C@H](CCCCN)NC(=O)[C@H](C)NC1=O (Ac-MCAKEHLFYYLLWCGSGSDYKDDDDK-NH2; disulfide 2-14) | 0.041 µM | > 10 µM | > 10 µM | –
